Laboratory results reported in patent US8609725B2, “Method of using beta-hydroxy-beta-methylbutyrate for reducing tumor growth rate” (Abbott Laboratories, priority 2004, dated 2013).

Assays:
[1] = system: mice bearing the MAC16 tumor; experiment: Weight loss, food and water intake in mice bearing the MAC16 tumor; type: in vivo, NMRI mice; conditions: doses of HMB greater than 0.125 g/kg, p.o. by gavage daily
Description: This study evaluates the effect of HMB, in comparison with EPA or combination, on weight loss induced by the MAC16 tumor and the mechanisms involved. […] Pure strain male NMRI mice (average weight 25 g) were obtained from our own inbred colony and were transplanted with fragments of the MAC16 tumor s.c. into the flank by means of a trochar, selecting from donor animals with established weight loss as described in Bibby, M. C. et al. Characterization of a transplantable adenocarcinoma of the mouse colon producing cachexia in recipient animals. J. Natl. Cancer Inst., 78: 539-546, 1987. Transplanted animals were fed a rat and mouse breeding diet (Special Diet Services, Witham, United Kingdom) and water ad libitum, and weight loss was evident 10-12 days after tumor implantation. Animals just prior to the development of weight loss were randomized to receive daily either EPA (in olive oil), HMB (in PBS) or the combination as described in the figure legends administered p.o. by gavage, while control animals received either olive oil or PBS. EPA (98% as free acid) was purchased from Biomol Research Laboratories Inc., PA, USA. HMB (as the calcium salt) was obtained from Abbott Laboratories, Columbus, Ohio, USA. All groups contained a minimum of 6 mice. Tumor volume, body weight and food and water intake were monitored daily. […]

[2] = system: 20S proteasome β-subunits; experiment: Western blotting of 20S proteasome β-subunits in gastrocnemius muscle of MAC16 mice; type: in vivo, NMRI mice
[3] = system: MSS1, an ATPase subunit of the 19S proteasome regulatory complex; experiment: Western blotting of MSS1 in gastrocnemius muscle of MAC16 mice; type: in vivo, NMRI mice
[4] = system: gastrocnemius muscle of mice bearing the MAC16 tumor; experiment: Protein synthesis and degradation in gastrocnemius muscle of MAC16 mice; type: in vivo
Method: Protein synthesis was measured by the incorporation of L-[4-3H]phenylalanine during a 2-hour period in which isolated gastrocnemius muscles were incubated at 37° C. in RPMI 1640 without phenol red and saturated with O2/CO2 (19:1). After incubation muscles were rinsed in nonradioactive medium, blotted dry, and homogenized in 4 mL 2% perchloric acid. The rate of protein synthesis was calculated by dividing the protein-bound radioactivity by the acid-soluble (unbound) material. For protein degradation assays animals from the same group as used to measure protein synthesis were given i.p. 0.4 mmol/L L-[4-3H]phenylalanine in PBS (100 μl) 24 hours prior to the assay. Isolated gastrocnemius muscles were extensively washed with PBS and RPMI 1640 before measuring the release of radioactivity into RPMI 1640 over a 2-hour period. The protein-bound activity was determined by homogenizing the muscles in 2% perchloric acid and determining the non-acid-soluble radioactivity (radioactivity in the precipitate). The rate of protein degradation was calculated by dividing the amount of [^3H]phenylalanine radioactivity released into the incubation medium during the 2-hour incubation period by the specific activity of protein-bound [^3H] phenylalanine.

[5] = HMB 0.25 g/kg, EPA 0.6 g/kg or combination, 3 days
[6] = HMB 0.25 and 2.5 g/kg daily p.o., 3 days, vs PBS control

## CC(C)(O)CC(=O)O [HMB, beta-hydroxy-beta-methylbutyric acid]
[1]
  weight loss: significant reduction in weight loss
[2]; [5]
  expression of 20S proteasome β-subunits: attenuated
[2]; summary of Examples I-IV
  reduction of protein expression of 20S β-subunits: at least 50%
[3]; [5]
  expression of MSS1: attenuated
[3]; summary of Examples I-IV
  reduction of protein expression of MSS1: at least 50%
[4]; [6]
  protein degradation in gastrocnemius muscle: attenuated
  protein synthesis in gastrocnemius muscle: significantly increased
[4]; HMB 0.25 g/kg
  increase in the ratio of protein synthesis to protein degradation in muscle: 14 fold
[4]; HMB 2.5 g/kg
  increase in the ratio of protein synthesis to protein degradation in muscle: 32 fold
